Bridge positions count the residues as written; N and C are the ends. Square brackets hold non-standard residues; d marks the D form. Triazole bridges read from a SMILES are 1,4-linked. Peptide text beside a SMILES is read from it. Dap(N3) = [N-]=[N+]=NC[C@H](N)C(=O)O; Pra = C#CC[C@H](N)C(=O)O
Legend:
[1] = pH 7.4
α-chymotrypsin = α-chymotrypsin (Bos taurus, UniProt P00766); settings: pH 7.4

NCCCC[C@@H]1NC(=O)[C@@H](Cc2c[nH]c3ccccc23)NC(=O)[C@@H]2CCCN2C(=O)[C@@H](NC(=O)[C@H](CC(=O)O)NC(=O)CN)CSSC[C@@H](C(N)=O)NC(=O)[C@H](Cc2c[nH]c3ccccc23)NC(=O)[C@@H]2CCCN2C1=O [contryphan-Vn, Contryphan-Vn[1,9], reference compound] (H-GDCP[dW]KPWC-NH2; disulfide 3-9)
Reduction stability in aqueous DTT solution (percent residual peptide) [1]: completely reduced | Protease stability under α-chymotrypsin treatment (percent residual peptide) (α-chymotrypsin): degraded completely

NCCCC[C@@H]1NC(=O)[C@@H](Cc2c[nH]c3ccccc23)NC(=O)[C@@H]2CCCN2C(=O)[C@@H](NC(=O)[C@H](CC(=O)O)NC(=O)CN)Cn2cc(nn2)C[C@@H](C(N)=O)NC(=O)[C@H](Cc2c[nH]c3ccccc23)NC(=O)[C@@H]2CCCN2C1=O [Compound 14, [Ala1(&^1),Ala7(&^2)]contryphan-Vn[1,9][(&^1-1,4-[1,2,3]-triazolyl-&^2)]] (H-GD[Dap(N3)]P[dW]KPW[Pra]-NH2; triazole 3-9)
Reduction stability in aqueous DTT solution (percent residual peptide) [1]: remained intact | Difference of protease stability versus native model peptide contryphan-Vn (α-chymotrypsin): No significant differences | Protease stability under α-chymotrypsin treatment (percent residual peptide) (α-chymotrypsin): degraded completely
